The values below come from paper PMC5784128, “Glucansucrase (mutant) enzymes from Lactobacillus reuteri 180 efficiently transglucosylate Stevia component rebaudioside A, resulting in a superior taste” (Scientific Reports, 2018).

Structures are written as SMILES.

The assay deals with T1, Gtf180-ΔN (Limosilactobacillus reuteri, UniProt Q5SBN3, Q1140E).
T1 construct: N-terminally truncated fragment (first 741 residues removed), 117 kDa; start 742 derived from the printed truncation
As to the kind of experiment: HPLC time course of transglucosylation. It counts as biochemical. The settings on record: acceptor substrate; 84 mM RebA, 282 mM sucrose donor, 5 U/mL enzyme, 1 mM CaCl2, pH 4.7, 37 °C.

T1 sequence (Q5SBN3 entry or part of it Q1140E): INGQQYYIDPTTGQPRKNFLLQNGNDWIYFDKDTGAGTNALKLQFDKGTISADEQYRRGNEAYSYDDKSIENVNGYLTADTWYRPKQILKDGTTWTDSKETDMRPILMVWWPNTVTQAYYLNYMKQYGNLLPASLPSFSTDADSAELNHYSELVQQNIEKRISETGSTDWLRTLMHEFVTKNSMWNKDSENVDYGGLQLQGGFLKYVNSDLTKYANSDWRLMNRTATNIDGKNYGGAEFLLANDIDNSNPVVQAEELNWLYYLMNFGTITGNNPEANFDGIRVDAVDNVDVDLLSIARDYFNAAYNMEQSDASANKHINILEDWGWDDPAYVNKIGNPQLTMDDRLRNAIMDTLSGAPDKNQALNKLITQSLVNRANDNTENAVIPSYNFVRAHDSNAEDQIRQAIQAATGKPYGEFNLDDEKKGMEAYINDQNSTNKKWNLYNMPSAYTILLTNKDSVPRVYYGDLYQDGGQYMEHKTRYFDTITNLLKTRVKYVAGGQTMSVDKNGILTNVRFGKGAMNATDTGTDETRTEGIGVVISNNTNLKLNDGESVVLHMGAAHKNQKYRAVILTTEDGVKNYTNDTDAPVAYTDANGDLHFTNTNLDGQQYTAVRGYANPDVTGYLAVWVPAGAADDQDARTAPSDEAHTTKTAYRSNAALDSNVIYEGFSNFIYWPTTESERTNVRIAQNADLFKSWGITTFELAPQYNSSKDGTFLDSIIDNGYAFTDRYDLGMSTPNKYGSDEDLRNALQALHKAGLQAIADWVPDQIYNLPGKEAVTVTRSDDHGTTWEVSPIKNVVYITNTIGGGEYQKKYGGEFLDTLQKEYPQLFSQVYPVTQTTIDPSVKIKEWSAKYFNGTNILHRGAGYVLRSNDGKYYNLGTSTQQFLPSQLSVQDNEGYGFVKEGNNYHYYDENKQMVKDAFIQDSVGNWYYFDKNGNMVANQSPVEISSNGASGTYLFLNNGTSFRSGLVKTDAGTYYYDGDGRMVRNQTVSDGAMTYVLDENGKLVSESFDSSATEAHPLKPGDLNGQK

For `C=C1C[C@@]23CC[C@H]4[C@@](C)(CCC[C@@]4(C)C(=O)O[C@@H]4O[C@H](CO)[C@@H](O)[C@H](O)[C@H]4O)[C@@H]2CC[C@]1(O[C@@H]1O[C@H](CO)[C@@H](O)[C@H](O[C@@H]2O[C@H](CO)[C@@H](O)[C@H](O)[C@H]2O)[C@H]1O[C@@H]1O[C@H](CO)[C@@H](O)[C@H](O)[C@H]1O)C3` [rebaudioside A], the “HPLC time course of transglucosylation” value was “the Q1140E-mutant not only converted more RebA into RebA-G than wild-type Gtf180-ΔN”.
